According to US20230391785A1, “NITROGEN-CONTAINING HETEROCYCLIC COMPOUND, METHOD FOR PREPARING SAME AND USE OF SAME” (280 Bio, Inc., priority 2021, published 2023):
Like-named read-outs stand apart in the source and are kept apart here.

Assays:
Format in all cases: cell-based
[1] = system: NCI-H358 cells (KRAS G12C mutation); test: Proliferation inhibition measured by CTG (CellTiter Glo), NCI-H358; conditions: Homo sapiens
Text: (§1) NCI-H358 is a human non-small cell lung cancer cell line with KRAS G12C mutation; PANC-1 and AsPC-1 are pancreatic cancer cell lines with KRAS G12D mutation; AGS is a gastric cancer cell line with KRAS G12D mutation; A427 is a lung cancer cell line with KRAS G12D mutation; THP-1 is a leukemia cell line with NRAS G12D mutation; Hs 578T is a breast cancer cell line with HRAS G12D mutation; SW480 is a colon cancer cell lines with KRAS G12V mutation; A375 is a wild type malignant melanoma cell line. The proliferation inhibitory effect of the compounds on various mutations was evaluated by determining the proliferation inhibitory activity of the compounds on these cell lines.
(§2) The assay was conducted on either 384-well plates or 96-well plates. The procedures are as follows:
(§3) The cell suspensions were added to 384- or 96-well plates (384-well plate: 40 μL; 96-well plate: […]) except for peripheral wells. The plates were incubated in a carbon dioxide incubator overnight. Prepared compounds (10 concentration gradients by serial 3-fold dilution) were added to the wells. The cell plates were incubated in a carbon dioxide incubator for 120 hours. CellTiter Glo reagent (384 well plate: 25 μL; 96 well plate: 100 μL) was added to the 384- or 96-well plates. The plates were shaken for 10 minutes away from light, and incubated for 10 minutes. The plates were read by EnVision system. Inhibition curves were plotted using XLFit and IC50 values were calculated. “IC50>10 μM” is denoted by “*”, “10 μM≥IC50>1 μM” is denoted by “**”, “1 μM≥IC50>100 nM” is denoted by “***”, and “IC50≤100 nM” is denoted by “****”.

[2] = system: AsPC-1 pancreatic cancer cell line (KRAS G12D mutation); test: Proliferation inhibition measured by CTG (CellTiter Glo), AsPC-1; conditions: Homo sapiens, ASPC1
Text: as §1, §2, §3

[3] = system: A375 wild type malignant melanoma cell line; test: Proliferation inhibition measured by CTG (CellTiter Glo), A375; conditions: Homo sapiens, A-375
Text: as §1, §2, §3

[4] = system: AGS gastric cancer cell line (KRAS G12D mutation); test: Proliferation inhibition measured by CTG (CellTiter Glo), AGS; conditions: CTG, 120 hours incubation
Text: as §1, §2, §3

[5] = system: Hs 578T breast cancer cell line (HRAS G12D mutation); test: Proliferation inhibition measured by CTG (CellTiter Glo), Hs 578T; conditions: Homo sapiens, Table 1, CTG, 120 hours incubation, class symbol
Text: as §1, §2, §3

[6] = system: THP-1 leukemia cell line (NRAS G12D mutation); test: Proliferation inhibition measured by CTG (CellTiter Glo), THP-1; conditions: Homo sapiens, Table 1, CTG, 120 hours incubation, class symbol
Text: as §1, §2, §3

[7] = system: SW480 colon cancer cell line (KRAS G12V mutation); test: Proliferation inhibition measured by CTG (CellTiter Glo), SW480; conditions: Homo sapiens, Table 3, 120 hours incubation, class symbol, read-out: IC50 (SW480)
Text: as §1, §2, §3

[8] = Table 1, CTG, 120 hours incubation, class symbol, read-out: IC50 (H358)
[9] = Table 1, CTG, 120 hours incubation, class symbol
[10] = Table 1, CTG, 120 hours incubation, class symbol, read-out: IC50 (A375)
[11] = Table 1, class symbol, read-out: IC50 (AGS)
[12] = Table 3, CTG, 120 hours incubation, class symbol, read-out: IC50 (H358)
[13] = Table 3, class symbol, read-out: IC50 (AGS)
[14] = Table 3, CTG, 120 hours incubation, class symbol, read-out: IC50 (A375)

Row | SMILES | IC50 [1, 8] | IC50 [2, 9] | IC50 [3, 10] | IC50 [4, 11] | IC50 [5] | IC50 [6] | IC50 [1, 12] | IC50 [4, 13] | IC50 [3, 14] | IC50 [7] | also measured
1 | CN1CCC[C@H]1COc1nc2c(c(N3CCc4cnoc4C3)n1)CCN(c1cccc3cccc(Cl)c13)C2 [Comparative compound 1′, reference compound] | > 10 µM | > 10 µM | > 10 µM |  |  |  |  |  |  |  | IC50 ([1]; Table 1, number in parentheses, no unit printed in Table 1 (Table 2 gives the same values of compound 2 in μM), read-out: IC50 (H358)): 17.2 µM; IC50 ([2]; Table 1, number in parentheses, unit not given in Table 1 (legend and Table 2 use μM)): 39.7 µM; IC50 ([3]; Table 1, number in parentheses, unit not given in Table 1 (Table 2 gives the same value in μM), read-out: IC50 (A375)): 22.7 µM
2 | CN1CCC[C@H]1COc1nc2c(c(N3CCn4cncc4C3)n1)CO[C@H](c1cccc3cccc(Cl)c13)C2 [Compound 3] | 0.1 to 1 µM | 1 to 10 µM | 1 to 10 µM |  |  |  |  |  |  |  | 
3 | Cc1ncc2n1CCN(c1nc(OC[C@@H]3CCCN3C)nc3c1CCN(c1cccc4cccc(Cl)c14)C3)C2 [Compound 5] | 1 to 10 µM | 1 to 10 µM | 1 to 10 µM |  |  |  |  |  |  |  | 
4 | CN1CCC[C@@H]1COc1nc2c(c(N3CCn4cncc4C3)n1)CCN(c1cccc3cccc(Cl)c13)C2 [Compound 18] | ≤ 0.1 µM | 0.1 to 1 µM | 0.1 to 1 µM | ≤ 0.1 µM | 0.1 to 1 µM | 0.1 to 1 µM |  |  |  |  | 
5 | CN1CCC(Oc2nc3c(c(N4CCn5cncc5C4)n2)CCN(c2cccc4cccc(Cl)c24)C3)CC1 [Compound 20] | 0.1 to 1 µM | 1 to 10 µM | 1 to 10 µM | 0.1 to 1 µM | 1 to 10 µM | 0.1 to 1 µM |  |  |  |  | 
6 | CN(C)CCCOc1nc2c(c(N3CCn4cncc4C3)n1)CCN(c1cccc3cccc(Cl)c13)C2 [Compound 21] | ≤ 0.1 µM | 0.1 to 1 µM | 0.1 to 1 µM | ≤ 0.1 µM | 0.1 to 1 µM | 0.1 to 1 µM |  |  |  |  | 
7 | CC1Cn2cncc2CN1c1nc(OC[C@@H]2CCCN2C)nc2c1CCN(c1cccc3cccc(Cl)c13)C2 (stereo partly drawn) [Compound 22] | ≤ 0.1 µM | ≤ 0.1 µM | ≤ 0.1 µM | ≤ 0.1 µM | 0.1 to 1 µM | ≤ 0.1 µM |  |  |  |  | IC50 ([1]; Table 2, CTG, 120 hours incubation, read-out: IC50 H358 (G12C)): 0.073 µM; IC50 ([4]; Table 2, read-out: IC50 AGS (G12D)): 0.054 µM; IC50 ([3]; Table 2, CTG, 120 hours incubation, read-out: IC50 A375 (wide type)): 0.096 µM
8 | COC1CN(c2nc(OC[C@@H]3CCCN3C)nc3c2CCN(c2cccc4cccc(Cl)c24)C3)Cc2cncn21 (stereo partly drawn) [Compound 23] | 0.1 to 1 µM | 0.1 to 1 µM | 0.1 to 1 µM | 0.1 to 1 µM | 1 to 10 µM | 0.1 to 1 µM |  |  |  |  | 
9 | Clc1cccc2cccc(N3CCc4c(nc(OCC56CCCN5CCC6)nc4N4CCn5cncc5C4)C3)c12 [Compound 24] | 0.1 to 1 µM | 1 to 10 µM | 0.1 to 1 µM | 1 to 10 µM | > 10 µM | 0.1 to 1 µM |  |  |  |  | 
10 | CN1CCO[C@H](COc2nc3c(c(N4CCn5cncc5C4)n2)CCN(c2cccc4cccc(Cl)c24)C3)C1 [Compound 27] | 0.1 to 1 µM | 0.1 to 1 µM | 1 to 10 µM | 0.1 to 1 µM | 1 to 10 µM | 0.1 to 1 µM |  |  |  |  | 
11 | CN1CC[C@@H](COc2nc3c(c(N4CCn5cncc5C4)n2)CCN(c2cccc4cccc(Cl)c24)C3)C1 [Compound 28] | 0.1 to 1 µM | 0.1 to 1 µM | 0.1 to 1 µM | 0.1 to 1 µM | 1 to 10 µM | 0.1 to 1 µM |  |  |  |  | 
12 | CC(CN(C)C)Oc1nc2c(c(N3CCn4cncc4C3)n1)CCN(c1cccc3cccc(Cl)c13)C2 (stereo not drawn) [Compound 29] | ≤ 0.1 µM | ≤ 0.1 µM | 0.1 to 1 µM | ≤ 0.1 µM | 0.1 to 1 µM | 0.1 to 1 µM |  |  |  |  | 
13 | CN1CCC[C@H]1COc1nc2c(c(N3CCn4cnc(-c5ccccc5)c4C3)n1)CCN(c1cccc3cccc(Cl)c13)C2 [Compound 30] | 0.1 to 1 µM | 0.1 to 1 µM | 0.1 to 1 µM | 0.1 to 1 µM | 1 to 10 µM | 0.1 to 1 µM |  |  |  |  | 
14 | Clc1cccc2cccc(N3CCc4c(nc(OCCN5CCCCC5)nc4N4CCn5cncc5C4)C3)c12 [Compound 31] | 0.1 to 1 µM | 0.1 to 1 µM | 1 to 10 µM | 0.1 to 1 µM | 1 to 10 µM | 0.1 to 1 µM |  |  |  |  | 
15 | Cc1cccc(N)c1C(=O)Oc1cc(N2CCc3c(nc(OC[C@@H]4CCCN4C)nc3N3Cc4c(F)ncn4C[C@H]3C)C2)c2c(Cl)cccc2c1 [Compound 102] |  |  |  |  |  |  | ≤ 0.1 µM | ≤ 0.1 µM | ≤ 0.1 µM | ≤ 0.1 µM | 
16 | CCc1ccc(NC(=O)Oc2cc(N3CCc4c(nc(OC[C@@H]5CCCN5C)nc4N4Cc5c(F)ncn5C[C@H]4C)C3)c3c(Cl)cccc3c2)cc1 [Compound 103] |  |  |  |  |  |  | ≤ 0.1 µM | ≤ 0.1 µM | ≤ 0.1 µM | ≤ 0.1 µM | 
17 | C[C@@H]1Cn2cnc(F)c2CN1c1nc(OC[C@@H]2CCCN2C)nc2c1CO[C@H](c1cccc3cccc(Cl)c13)C2 [Compound 104] |  |  |  |  |  |  | 0.1 to 1 µM | 0.1 to 1 µM | 0.1 to 1 µM | 0.1 to 1 µM | 
18 | CC[C@@H]1Cn2cncc2CN1c1nc(OC[C@@H]2CCCN2C)nc2c1CCN(c1cccc3cccc(Cl)c13)C2 [Compound 107] |  |  |  |  |  |  | ≤ 0.1 µM | ≤ 0.1 µM | ≤ 0.1 µM | ≤ 0.1 µM | 
19 | C[C@@H]1Cn2cnc(F)c2CN1c1nc(OC[C@@H]2CCCCN2C)nc2c1CCN(c1cccc3cccc(F)c13)C2 [Compound 113] |  |  |  |  |  |  | ≤ 0.1 µM | ≤ 0.1 µM | ≤ 0.1 µM | ≤ 0.1 µM | 
20 | CC1Cc2[nH]ncc2CN1c1nc(OC[C@@H]2CCCN2C)nc2c1CCN(c1cccc3cccc(Cl)c13)C2 (stereo partly drawn) [Compound 118] |  |  |  |  |  |  | 0.1 to 1 µM | ≤ 0.1 µM | 0.1 to 1 µM | ≤ 0.1 µM | 

Second part, led by results:

Row | IC50 [1, 8] | IC50 [2, 9] | IC50 [3, 10] | IC50 [4, 11] | IC50 [5] | IC50 [6] | IC50 [1, 12] | IC50 [4, 13] | IC50 [3, 14] | IC50 [7] | SMILES | also measured
21 |  |  |  |  |  |  | ≤ 0.1 µM | ≤ 0.1 µM | ≤ 0.1 µM | ≤ 0.1 µM | C[C@@H]1Cn2cnc(F)c2CN1c1nc(OC[C@@H]2CCCN2C)nc2c1CCN(c1cc(O)c(Cl)c3cccc(Cl)c13)C2 [Compound 105] | 
22 |  |  |  |  |  |  | ≤ 0.1 µM | ≤ 0.1 µM | ≤ 0.1 µM | ≤ 0.1 µM | C[C@@H]1Cn2cnc(F)c2CN1c1nc(OC[C@@H]2CCCN2C)nc2c1CCN(c1cccc3cccc(F)c13)C2 [Compound 106] | 
23 |  |  |  |  |  |  | 0.1 to 1 µM | ≤ 0.1 µM | 0.1 to 1 µM | ≤ 0.1 µM | C#Cc1c(F)ccc2cc(O)cc(N3CCc4c(nc(OC[C@@H]5CCCN5C)nc4N4Cc5c(F)ncn5C[C@H]4C)C3)c12 [Compound 108] | 
24 |  |  |  |  |  |  | 1 to 10 µM | 0.1 to 1 µM | 1 to 10 µM | 0.1 to 1 µM | C[C@@H]1Cn2cnc(F)c2CN1c1nc(OC[C@@H]2CCCN2C)nc2c1CCN(c1cc(NC(=O)OC(C)(C)C)cc3cccc(Cl)c13)C2 [Compound 109] | 
25 |  |  |  |  |  |  | ≤ 0.1 µM | ≤ 0.1 µM | ≤ 0.1 µM | ≤ 0.1 µM | C[C@@H]1Cn2cnc(F)c2CN1c1nc(OC[C@@H]2CCCN2C)nc2c1CCN(c1cc(N)cc3cccc(Cl)c13)C2 [Compound 110] | 
26 |  |  |  |  |  |  | 1 to 10 µM | 1 to 10 µM | 1 to 10 µM | 0.1 to 1 µM | CC(=O)Nc1cc(N2CCc3c(nc(OC[C@@H]4CCCN4C)nc3N3Cc4c(F)ncn4C[C@H]3C)C2)c2c(Cl)cccc2c1 [Compound 111] | 
27 |  |  |  |  |  |  | 1 to 10 µM | 0.1 to 1 µM | 1 to 10 µM | 0.1 to 1 µM | C[C@@H]1Cn2cnc(F)c2CN1c1nc(OC[C@@H]2CCCN2C)nc2c1CCN(c1cc(NS(C)(=O)=O)cc3cccc(Cl)c13)C2 [Compound 112] | 
28 |  |  |  |  |  |  | ≤ 0.1 µM | ≤ 0.1 µM | ≤ 0.1 µM | ≤ 0.1 µM | C[C@@H]1Cn2cnc(F)c2CN1c1nc(OC[C@@H]2CCCCN2C)nc2c1CCN(c1cc(F)cc3cccc(Cl)c13)C2 [Compound 115] | 
29 |  |  |  |  |  |  | ≤ 0.1 µM | ≤ 0.1 µM | ≤ 0.1 µM | ≤ 0.1 µM | C[C@@H]1Cn2cnc(F)c2CN1c1nc(OC[C@@H]2CCCN2C)nc2c1CCN(c1cc(F)cc3cccc(Cl)c13)C2 [Compound 117] | 
